In article PMC12652113, “Fluorescent Albumin-Binding N-Propylbenzene Indolenine-Based Squaraines as Potential Candidates for Prostate Cancer Photodynamic Therapy Photosensitizers” (International Journal of Molecular Sciences, 2025):

Assays:
[1] = Singlet oxygen generation, 1,3-diphenylisobenzofuran (DPBF) assay; assay type: physicochemical; conditions: DMSO; LED irradiation; relative to benzoselenazole squaraine reference
Experimental: The ability of the squaraine dyes to generate singlet oxygen was assessed using the 1,3-diphenylisobenzofuran (DPBF) assay. In this method, squaraine solutions were incubated with DPBF and irradiated for different time intervals, followed by the monitoring of absorbance at 410 nm. A progressive decrease in DPBF absorbance was observed upon irradiation for all synthesized compounds, confirming their ability to produce this reactive oxygen species. However, it should be emphasized that the reference squaraine dye induced a sharp reduction in DPBF absorbance within a short irradiation period, with the decay being limited only by its intrinsic photoinstability.
Singlet oxygen production was assessed by monitoring the bleaching of 1,3-diphenylisobenzofuran (DPBF) at 410 nm. Fresh solutions of squaraine dyes (20 µM) and DPBF (0.1 mM) were introduced into 96-well plates, and decreases in absorbance were recorded before and after irradiation at defined time intervals. Quantum yields of singlet oxygen generation (ΦΔ) were determined by comparing the slopes of DPBF degradation for the squaraine dyes [S(dye)] with those of a benzoselenazole squaraine reference dye [S(ref), ΦΔ = 0.10], according to established linear regression procedures (Equation (1)). In parallel, photodegradation of the squaraines was monitored by following changes in their absorbance over time, with normalization applied to enable direct comparison across samples.(1) ΦΔdye=ΦΔref × Sdye/Sref

[2] = Photophysical properties in phosphate buffer in the absence of HSA; assay type: physicochemical; conditions: phosphate buffer (pH 7.4)
Experimental: Squaraine dyes were dissolved in dimethyl sulfoxide, whereas zinc phthalocyanine required dimethylformamide as a solvent. All stock solutions were prepared at 0.67 mM concentration and stored in the dark at 4 °C until further use. For spectroscopic characterization, 1.0 µM stock solutions of the squaraine dyes in dimethyl sulfoxide were serially diluted into a series of solvents (chloroform, dimethyl sulfoxide, methanol, and phosphate buffer) to obtain at least five defined concentrations. The absorption spectra of these dilutions were recorded and used to calculate molar extinction coefficients according to the Beer–Lambert law. Additional working solutions at a 1.0 µM concentration were prepared in dimethyl sulfoxide and buffer, and 1.0% Triton X-100 was added where required to investigate dye aggregation.
For fluorometric experiments, the squaraine stock solutions were initially prepared in dimethylformamide and subsequently diluted with phosphate buffer for the protein–dye interaction analysis. Human serum albumin stock solution was then added to these mixtures, while keeping the dye concentration fixed at 2.0 µM and varying the protein concentration from 0 to 3.0 µM (0.0 to 3.0 µM for squaraines 5, 9, and 11, and from 0 to 6.0 µM for squaraine 13). Fluorescence intensities of the resulting solutions were recorded after 0, 3, and 24 h of incubation with the protein. The excitation wavelengths and excitation/emission slit widths used for the measurements were optimized for each dye, as listed in Table 6.

[3] = test system: normal human dermal fibroblasts (NHDF); experiment: MTT dark and light-induced cytotoxicity in NHDF; assay type: cell-based; conditions: for IC50: Homo sapiens, 24 h incubation; for IC50 / Photodynamic ratio (PTR): NHDF; for Photodynamic ratio (PTR): IC50 dark/IC50 irradiated
Experimental: For potential applicability as photosensitizers in PDT, these candidates are expected to display cytotoxic effects only after photoactivation, namely, and preferably restricted to target tissue cells, without inducing damage to healthy counterparts. To evaluate this, prostate adenocarcinoma PC-3 cells and non-tumoral NHDF fibroblasts were incubated with increasing concentrations of the squaraine dyes for 24 h. Subsequently, the cells were irradiated using an LED system centered at 663 nm, a wavelength close to the absorption maximum of the monomeric dye forms. Twenty-four hours post-irradiation, cellular metabolic activity was assessed by the MTT assay.
The in cell photocytotoxicity of the squaraine dyes was assessed using the MTT assay. When cells reached 90–95% confluence, they were trypsinized using a trypsin-EDTA solution (0.125 g/L trypsin, 0.02 g/L EDTA), counted via trypan-blue exclusion in a Neubauer chamber, and diluted to 2 × 10^4 cells/mL. A 100 µL aliquot of this suspension was seeded into each well of 96-well plates and incubated for 48 h to allow for cell attachment and resumption of proliferation.
After this period, the medium was removed, and cells were treated with various concentrations of the squaraine dyes (0.01, 0.1, 1, 2.5, 5, and 10 µM) in the appropriate culture medium. […] Negative controls consisted of cells exposed only to culture medium. All experiments were performed in quadruplicate and independently repeated.
After 24 h of exposure to the dyes, the cells were subjected to two different irradiation conditions: the first group was not irradiated and was protected from ambient light for 21 min, and the second group was irradiated for 7 min.
Twenty-four hours post-irradiation, the culture medium was removed, cells were washed with 100 µL PBS, and 100 µL of MTT solution (5 mg/mL in serum- and antibiotic-free medium) was added per well. Cells were incubated for 4 h at 37 °C, after which the supernatant was discarded, and the formazan crystals were solubilized in dimethyl sulfoxide. Absorbance was measured at 570 nm using a Bio-Rad xMark microplate reader.
Cell viability was expressed as the percentage of absorbance in treated samples relative to the untreated negative control. Data were statistically analyzed by ordinary two-way ANOVA followed by the Šidák multiple comparisons test, comparing irradiated and non-irradiated conditions at the same concentration, with differences considered statistically significant at a p-value < 0.05. Half-maximal inhibitory concentration values reported in this work were obtained by fitting the data to a sigmoidal model with a 95% confidence interval. All assays were performed in quadruplicate and replicated independently at least twice. Phototoxicity and tumor selectivity ratios were quantified according to Equations (6) and (7):(6) PTR = IC50 dark condition/IC50 irradiated condition (7) TSR = IC50 for NHDF cells under irradiated condition/IC50 for cancer cell line under irradiated condition
Irradiation was performed using a light-emitting diode array centered at 663 ± 8 nm to match the absorption maximum of the dyes. The LED (Roithner; 8.3 mW radiant flux) was integrated into flat-bottom 96-well plates and powered by a regulated current source. The irradiance was 15.8 mW/cm^2, and the total energy delivered per well was 3.49 J after 7 min, ensuring precise light dosing for all experiments.

[4] = light or radiation study, Light, 7 min LED 663 nm, MTT 24 h post-irradiation

| Compound | singlet oxygen quantum yield (ΦΔ) [1] | absorption maximum (λabs) [2] [nm] | fluorescence quantum yield (ΦF) [2] | molar absorption coefficient (ε) [2] [M⁻¹ cm⁻¹] | IC50 [3, 4] [µM] | IC50 ([3]; Dark, MTT 24 h later) [µM] | Photodynamic ratio (PTR) [3] | Stokes shift (ΔS) [2] [nm] | emission maximum (λem) [2] [nm] | reduction in viability ([3]; normal fibroblasts, irradiated, up to 2.5 μM) [%] |
| --- | --- | --- | --- | --- | --- | --- | --- | --- | --- | --- |
| CNC1=C(C=C2N(CCCc3ccccc3)c3ccccc3C2(C)C)C(=O)C1=CC1=[N+](CCCc2ccccc2)c2ccccc2C1(C)C.[I-] [Dye 11, 2-{3-[3,3-Dimethyl-1-(3-phenylpropyl)indolin-2-ylidenemethyl]-2-(methylamino)-4-oxocyclobut-2-en-1-ylidenemethyl}-3,3-dimethyl-1-(3-phenylpropyl)-indol-1-ium Iodide] | <0.01 | 655 | 0.01 | 71000 | 3.24 | 6.57 | 2.0 | – | – | – |
| CC1(C)C(=CC2=C(N)C(=CC3=[N+](CCCc4ccccc4)c4ccccc4C3(C)C)C2=O)N(CCCc2ccccc2)c2ccccc21.[I-] [Dye 9, 2-{2-Amino-3-[3,3-dimethyl-1-(3-phenylpropyl)indolin-2-ylidenemethyl]-4-oxocyclobut-2-en-1-ylidenemethyl}-3,3-dimethyl-1-(3-phenylpropyl)-indol-1-ium Iodide] | <0.01 | 605 | 0.00 | 58000 | 3.79 | 6.8 | 1.8 | 37 | 642 | – |
| CC1(C)C(=CC2=C([O-])C(=CC3=[N+](CCCc4ccccc4)c4ccccc4C3(C)C)C2=O)N(CCCc2ccccc2)c2ccccc21 [Dye 5, 4-[3,3-Dimethyl-1-(3-phenylpropyl)-indol-1-ium-2-ylmethylene]-2-[3,3-dimethyl-1-(3-phenylpropyl)indolin-2-ylidenemethyl]-3-oxocyclobut-1-en-1-olate] | <0.01 | 605 | 0.02 | 89000 | 7.41 | > 10 | >1.4 | 91 | 696 | ≤ 30 |
| CC1(C)C(=CC2=C(NCc3ccc4ccc5cccc6ccc3c4c56)C(=CC3=[N+](CCCc4ccccc4)c4ccccc4C3(C)C)C2=O)N(CCCc2ccccc2)c2ccccc21.[I-] [Dye 14, 2-({3-[3,3-dimethyl-1-(3-phenylpropyl)indolin-2-ylidenemethyl]-4-oxo-2-[(pyren-1-ylmethyl)amino]cyclobut-2-en-1-ylidene}methyl)-3,3-dimethyl-1-(3-phenylpropyl)-indol-1-ium Iodide] | <0.01 | 672 | 0.00 | 67000 | > 10 | > 10 | – | – | – | – |
